Results published in article PMC9386018, “A lymphatic-absorbed multi-targeted kinase inhibitor for myelofibrosis therapy” (Nature Communications, 2022).
Where “and” joins values, the source holds several entries; their conditions need not be identical. Equal entries are not always repeated. Each block holds one compound with its values, some of them ahead of it.

What was measured:
[1] = Compound quantitation in blood and mesenteric lymph nodes; format: in vivo, mouse; settings: mice
Description: Whole blood and mesenteric lymph nodes were collected either 30 min or 4 h following compound administration and stored at −20 °C until future processing and analysis by the University of Michigan Pharmacokinetics Core as above, or as outlined below, to determine compound concentrations in each tissue. […] Data was generated from n ≥ 4 individual animals per compound per study group or dose.
Briefly, acetonitrile was added to a final concentration of 60–80% to bone marrow, whole blood, plasma, lymphatic fluid, lymphatic proteo-lipid sub-fractions, or mesenteric lymph node samples for compound extraction. Extraction was performed by shaking and/or bead rupture using a Precellys Evolution tissue homogenizer (Bertin Technologies SAS). […] Optimization of MS and MS/MS parameters for MRM quantitation and maximum sensitivity of individual compounds was performed using SCIEX Analyst software (AB Sciex). […] All LC-MS/MS acquisitions were performed with an independent standard curve for each group of analytes and for each individual run. All solvents utilized were of Optima LC-MS Grade (Fisher Scientific). Data was generated from n ≥ 2 individual animals per compound per study condition or dose.

[2] = biological target: T1, Target kinase isoforms (PI3K, mTOR, RAF, MEK) (Homo sapiens, UniProt O00329); assay: Target kinase isoforms 10-point IC50 determination (Supplementary Fig. 7); format: biochemical; settings: PI3K delta
T1 sequence (O00329 1-1044): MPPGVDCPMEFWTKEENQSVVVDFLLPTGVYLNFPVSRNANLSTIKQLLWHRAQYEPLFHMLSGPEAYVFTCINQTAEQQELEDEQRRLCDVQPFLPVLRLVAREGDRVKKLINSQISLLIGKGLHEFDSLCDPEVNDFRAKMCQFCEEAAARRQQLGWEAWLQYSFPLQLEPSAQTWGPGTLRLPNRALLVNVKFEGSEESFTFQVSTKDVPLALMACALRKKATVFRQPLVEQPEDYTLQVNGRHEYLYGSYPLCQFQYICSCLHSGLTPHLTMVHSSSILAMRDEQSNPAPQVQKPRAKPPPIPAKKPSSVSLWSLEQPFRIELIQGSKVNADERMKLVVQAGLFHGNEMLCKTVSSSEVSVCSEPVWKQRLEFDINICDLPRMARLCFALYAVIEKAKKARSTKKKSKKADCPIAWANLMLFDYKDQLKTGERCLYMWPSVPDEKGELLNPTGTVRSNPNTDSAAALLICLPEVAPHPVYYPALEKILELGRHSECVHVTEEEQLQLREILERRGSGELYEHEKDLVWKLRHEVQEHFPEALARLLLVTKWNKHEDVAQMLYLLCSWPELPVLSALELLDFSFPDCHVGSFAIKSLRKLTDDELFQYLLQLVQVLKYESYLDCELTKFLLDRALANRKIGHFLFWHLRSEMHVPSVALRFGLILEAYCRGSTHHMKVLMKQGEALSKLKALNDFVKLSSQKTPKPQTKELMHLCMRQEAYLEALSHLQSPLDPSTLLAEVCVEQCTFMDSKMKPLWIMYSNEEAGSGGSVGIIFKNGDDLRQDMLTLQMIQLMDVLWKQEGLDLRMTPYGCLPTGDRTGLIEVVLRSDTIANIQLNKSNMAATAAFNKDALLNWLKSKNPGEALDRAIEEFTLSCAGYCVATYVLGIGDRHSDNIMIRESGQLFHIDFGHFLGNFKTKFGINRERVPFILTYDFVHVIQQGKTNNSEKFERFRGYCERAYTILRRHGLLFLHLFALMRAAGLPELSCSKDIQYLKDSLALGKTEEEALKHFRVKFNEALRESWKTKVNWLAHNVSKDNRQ
From the text: (§1) The average percent kinase inhibition from replicate data was ranked low to high, converted to a compatible identifier format, then input into Coral Human Kinome Visualization software for presentation analysis. […] Scaling of evolutionary distance for PI kinases is only relative and is based on literature analysis[62],[63]. Average percent kinome inhibition values from replicate data are supplied in Source Data file. […] Corrected data was normalized to vehicle treated control values, and dose response percent kinase activity was analyzed by non-linear regression for determination of IC50 values.

[3] = biological target: Target kinase isoforms (PI3K, mTOR, RAF, MEK) (Homo sapiens, UniProt P42338); assay: as above; format: biochemical; settings: PI3K beta
From the text: as §1

[4] = biological target: Target kinase isoforms (PI3K, mTOR, RAF, MEK) (Homo sapiens, UniProt P48736); assay: as above; format: biochemical; settings: PI3K gamma
From the text: as §1

[5] = biological target: Target kinase isoforms (PI3K, mTOR, RAF, MEK) (Homo sapiens, UniProt P42336); assay: as above; format: biochemical; settings: PI3K alpha
From the text: as §1

[6] = concentration 0.0187 nM, 18.7 pM
[7] = concentration 0.495 nM, 0.000495 µM
[8] = concentration 4.57 nM, 0.00457 µM
[9] = concentration 1.52 nM, 0.00152 µM

Target kinase isoforms (PI3K, mTOR, RAF, MEK) (Homo sapiens, UniProt P48736), sequence (P48736 whole entry, canonical isoform): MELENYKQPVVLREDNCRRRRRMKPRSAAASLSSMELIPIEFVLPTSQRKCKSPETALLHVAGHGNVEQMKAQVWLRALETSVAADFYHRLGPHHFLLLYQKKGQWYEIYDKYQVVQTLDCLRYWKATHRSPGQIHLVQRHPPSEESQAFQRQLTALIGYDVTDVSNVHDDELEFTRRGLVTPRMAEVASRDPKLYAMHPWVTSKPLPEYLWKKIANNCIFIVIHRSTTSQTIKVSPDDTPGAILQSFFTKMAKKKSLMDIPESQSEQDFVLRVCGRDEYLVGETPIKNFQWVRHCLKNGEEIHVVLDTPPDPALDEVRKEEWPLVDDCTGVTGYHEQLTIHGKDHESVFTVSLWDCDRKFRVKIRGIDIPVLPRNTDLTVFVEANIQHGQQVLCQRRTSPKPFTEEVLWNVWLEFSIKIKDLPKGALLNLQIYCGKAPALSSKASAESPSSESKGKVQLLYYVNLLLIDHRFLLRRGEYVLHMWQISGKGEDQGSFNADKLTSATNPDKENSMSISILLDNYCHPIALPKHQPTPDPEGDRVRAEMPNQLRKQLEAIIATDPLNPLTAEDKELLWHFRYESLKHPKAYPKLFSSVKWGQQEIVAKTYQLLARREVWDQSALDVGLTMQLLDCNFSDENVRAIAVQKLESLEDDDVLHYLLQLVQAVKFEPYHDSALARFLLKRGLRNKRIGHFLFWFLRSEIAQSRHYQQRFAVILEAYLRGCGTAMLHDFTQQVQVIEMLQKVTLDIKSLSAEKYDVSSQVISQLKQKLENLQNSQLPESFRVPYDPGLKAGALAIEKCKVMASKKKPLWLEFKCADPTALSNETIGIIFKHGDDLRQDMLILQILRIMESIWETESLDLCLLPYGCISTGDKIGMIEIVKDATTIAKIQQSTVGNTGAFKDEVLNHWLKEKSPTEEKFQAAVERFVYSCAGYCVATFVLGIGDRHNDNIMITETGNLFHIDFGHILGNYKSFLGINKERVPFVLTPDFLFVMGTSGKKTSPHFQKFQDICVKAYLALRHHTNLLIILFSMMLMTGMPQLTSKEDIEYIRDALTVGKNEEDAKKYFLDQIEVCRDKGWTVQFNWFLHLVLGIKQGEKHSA
Target kinase isoforms (PI3K, mTOR, RAF, MEK) (Homo sapiens, UniProt P42338), sequence (P42338 whole entry, canonical isoform): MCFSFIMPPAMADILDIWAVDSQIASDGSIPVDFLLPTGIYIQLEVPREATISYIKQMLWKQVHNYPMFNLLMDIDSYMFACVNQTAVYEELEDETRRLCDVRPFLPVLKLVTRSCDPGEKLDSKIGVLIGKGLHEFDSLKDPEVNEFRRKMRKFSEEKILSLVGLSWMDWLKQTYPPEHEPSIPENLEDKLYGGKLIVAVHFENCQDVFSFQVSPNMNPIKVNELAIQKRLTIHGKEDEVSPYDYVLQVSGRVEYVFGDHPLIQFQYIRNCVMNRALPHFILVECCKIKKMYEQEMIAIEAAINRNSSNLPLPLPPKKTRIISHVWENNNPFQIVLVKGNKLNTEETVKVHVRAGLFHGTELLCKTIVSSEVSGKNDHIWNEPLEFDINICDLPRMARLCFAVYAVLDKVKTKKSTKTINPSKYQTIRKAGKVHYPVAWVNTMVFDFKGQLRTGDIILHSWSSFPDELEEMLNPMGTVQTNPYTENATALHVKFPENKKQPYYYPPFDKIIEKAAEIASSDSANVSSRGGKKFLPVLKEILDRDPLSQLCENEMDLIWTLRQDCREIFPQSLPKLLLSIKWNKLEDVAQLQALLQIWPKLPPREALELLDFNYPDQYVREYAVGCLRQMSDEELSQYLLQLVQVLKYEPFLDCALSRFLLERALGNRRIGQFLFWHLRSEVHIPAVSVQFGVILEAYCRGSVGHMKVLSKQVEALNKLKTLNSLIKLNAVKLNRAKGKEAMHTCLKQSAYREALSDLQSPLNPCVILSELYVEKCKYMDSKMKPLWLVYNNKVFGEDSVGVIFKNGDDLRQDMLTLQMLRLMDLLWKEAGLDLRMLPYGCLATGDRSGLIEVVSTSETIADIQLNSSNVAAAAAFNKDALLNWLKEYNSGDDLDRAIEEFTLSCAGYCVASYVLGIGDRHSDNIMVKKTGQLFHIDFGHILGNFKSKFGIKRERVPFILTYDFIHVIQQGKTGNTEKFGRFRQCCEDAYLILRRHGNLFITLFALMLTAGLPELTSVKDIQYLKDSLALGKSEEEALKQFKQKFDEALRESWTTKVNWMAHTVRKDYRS
Target kinase isoforms (PI3K, mTOR, RAF, MEK) (Homo sapiens, UniProt P42336), sequence (P42336 whole entry, canonical isoform): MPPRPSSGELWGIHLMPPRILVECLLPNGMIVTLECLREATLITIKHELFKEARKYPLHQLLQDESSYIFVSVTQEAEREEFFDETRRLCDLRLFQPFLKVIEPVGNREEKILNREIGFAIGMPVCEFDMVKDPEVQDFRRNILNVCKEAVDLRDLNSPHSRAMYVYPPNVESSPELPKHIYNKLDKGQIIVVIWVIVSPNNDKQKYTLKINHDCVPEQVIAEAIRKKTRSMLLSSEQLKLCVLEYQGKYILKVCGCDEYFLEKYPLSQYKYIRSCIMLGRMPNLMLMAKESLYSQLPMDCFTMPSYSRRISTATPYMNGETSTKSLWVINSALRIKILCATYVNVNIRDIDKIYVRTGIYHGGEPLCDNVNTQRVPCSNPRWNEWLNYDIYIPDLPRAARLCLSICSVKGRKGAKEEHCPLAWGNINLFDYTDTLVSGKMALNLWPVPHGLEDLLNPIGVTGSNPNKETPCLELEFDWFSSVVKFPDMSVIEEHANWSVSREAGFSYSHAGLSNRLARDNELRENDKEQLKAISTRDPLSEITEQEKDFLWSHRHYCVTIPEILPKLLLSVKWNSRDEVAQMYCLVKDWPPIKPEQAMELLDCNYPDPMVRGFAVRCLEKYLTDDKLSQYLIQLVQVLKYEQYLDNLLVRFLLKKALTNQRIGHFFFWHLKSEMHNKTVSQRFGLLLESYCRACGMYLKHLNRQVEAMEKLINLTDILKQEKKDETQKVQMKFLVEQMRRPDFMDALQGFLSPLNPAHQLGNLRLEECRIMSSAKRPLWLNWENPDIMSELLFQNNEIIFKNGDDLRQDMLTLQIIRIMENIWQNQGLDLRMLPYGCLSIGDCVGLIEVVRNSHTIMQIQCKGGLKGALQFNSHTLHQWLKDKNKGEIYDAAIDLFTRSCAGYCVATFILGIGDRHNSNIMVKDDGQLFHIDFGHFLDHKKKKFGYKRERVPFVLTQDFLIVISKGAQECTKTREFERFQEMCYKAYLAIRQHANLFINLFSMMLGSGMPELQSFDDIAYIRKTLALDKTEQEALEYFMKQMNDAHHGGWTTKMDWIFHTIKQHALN

- mesenteric lymph node levels versus blood ([1]; 4 h after oral 400 mg kg^−1): significantly higher than in blood
Structure (SMILES): O=C(NOCCOCCOCCOCCONC(=O)c1ccc(F)c(F)c1Nc1ccc(I)cc1F)c1ccc(F)c(F)c1Nc1ccc(I)cc1F [LP5-37]

- activity at 670 fM ([2]; concentration 0.00067 nM): 113%
- Kinase Activity (%) PI3K delta ([2]; concentration 0.00067 nM, 670 fM): 102%
- activity at 18.7 pM ([2]; concentration 0.0187 nM): 97%
- Kinase Activity (%) PI3K delta [2, 6]: 108%
- activity at 56.2 pM ([2]; concentration 0.0562 nM): 81%
- Kinase Activity (%) PI3K delta [2, 7]: 16% and 14% and 11% and 8%
- Kinase Activity (%) PI3K delta [2, 8]: 6%
- activity at 0.0412 µM ([2]; concentration 41.2 nM): 4%
- activity at 0.123 µM ([2]; concentration 123 nM): 4%
- activity at […] ([2]; concentration 370 nM): 4%
- activity at 1.11 µM ([2]; concentration 1110 nM): 4%
- Kinase Activity (%) PI3K delta ([2]; concentration 1110 nM, 1.11 µM): 6%
- activity at 3.33 µM ([2]; concentration 3330 nM): 5%
- Kinase Activity (%) PI3K delta ([2]; concentration 3330 nM, 3.33 µM): 6% and 7%
- Kinase Activity (%) PI3K delta ([2]; concentration 10000 nM, 10 µM): 7% and 0%
- activity at 2.04 pM ([2]; concentration […]): 103%
- activity at 6.09 pM ([2]; concentration […]): 104%
- Kinase Activity (%) PI3K delta ([2]; concentration […], 2.04 pM): 105%
- Kinase Activity (%) PI3K delta ([2]; concentration […], 6.09 pM): 106%
- activity at 18.7 pM ([3]; concentration 0.0187 nM): 103%
- Kinase Activity (%) PI3K beta [3, 6]: 108%
- activity at 56.2 pM ([3]; concentration 0.0562 nM): 110%
- Kinase Activity (%) PI3K beta ([3]; concentration 0.0562 nM, 56.2 pM): 106%
- Kinase Activity (%) PI3K beta [3, 9]: 48% and 51% and 47% and 67% and 62%
- activity at 0.0412 µM ([3]; concentration 41.2 nM): 9%
- Kinase Activity (%) PI3K beta ([3]; concentration 41.2 nM, 0.0412 µM): 7% and 8% and 10%
- activity at 0.123 µM ([3]; concentration 123 nM): 9%
- Kinase Activity (%) PI3K beta ([3]; concentration 123 nM, 0.123 µM): 6% and 10% and 8% and 7%
- activity at […] ([3]; concentration 370 nM): 12%
- activity at 1.11 µM ([3]; concentration 1110 nM): 9%
- Kinase Activity (%) PI3K beta ([3]; concentration 1110 nM, 1.11 µM): 8%
- activity at 3.33 µM ([3]; concentration 3330 nM): 11%
- Kinase Activity (%) PI3K beta ([3]; concentration 3330 nM, 3.33 µM): 10%
- activity at 2.04 pM ([3]; concentration […]): 107%
- activity at 0.00152 µM ([4]; concentration 1.52 nM): 19%
- Kinase Activity (%) PI3K gamma [4, 9]: 24% and 22% and 20% and 21%
- activity at 0.0412 µM ([4]; concentration 41.2 nM): 0%
- activity at 0.123 µM ([4]; concentration 123 nM): 0%
- Kinase Activity (%) PI3K gamma ([4]; concentration 370 nM, […]): 1%
- activity at 1.11 µM ([4]; concentration 1110 nM): 0%
- activity at 3.33 µM ([4]; concentration 3330 nM): 0%
- Kinase Activity (%) PI3K gamma ([4]; concentration 10000 nM, 10 µM): 5%
- Kinase Activity (%) PI3K gamma ([4]; concentration […], 6.09 pM): 103%
- activity at 670 fM ([5]; concentration 0.000670 nM): 105%
- Kinase Activity (%) PI3K alpha ([5]; concentration 0.00209 nM, 2.09 pM): 101%
- activity at 18.8 pM ([5]; concentration 0.0188 nM): 91%
- Kinase Activity (%) PI3K alpha ([5]; concentration 0.0188 nM, 18.8 pM): 89%
- activity at 56.4 pM ([5]; concentration 0.0564 nM): 73%
- Kinase Activity (%) PI3K alpha ([5]; concentration 0.0564 nM, 56.4 pM): 75%
- activity at 0.000495 µM ([5]; concentration 0.495 nM): 15%
- Kinase Activity (%) PI3K alpha [5, 7]: 17% and 18% and 16% and 20%
- activity at 0.00152 µM ([5]; concentration 1.52 nM): 4%
- Kinase Activity (%) PI3K alpha [5, 9]: 5% and 6%
- Kinase Activity (%) PI3K alpha [5, 8]: 1%
- activity at 0.0412 µM ([5]; concentration 41.2 nM): 0%
- activity at 0.123 µM ([5]; concentration 123 nM): 0%
- activity at […] ([5]; concentration 370 nM): 0%
- activity at 1.11 µM ([5]; concentration 1110 nM): 0%
- Kinase Activity (%) PI3K alpha ([5]; concentration 10000 nM, 10 µM): 1%
Structure (SMILES): COc1ncc(-c2ccc3nccc(-c4ccnnc4)c3c2)cc1NS(=O)(=O)c1ccc(F)cc1F [GSK2126458]
- Kinase Activity (%) PI3K beta [3, 7]: 72% and 62% and 60% and 71% and 65% and 84%

- uptake in the mesenteric lymph nodes compared to LP5-37 ([1]; 4 h after oral 100 mg kg^−1): reduced uptake
Structure (SMILES): COCCOCCOCCOCCONC(=O)c1ccc(F)c(F)c1Nc1ccc(I)cc1F [LP5-38]
